Reference: patent US9283235B2, “Intermittent lowering of cortisol as treatment of clinical conditions associated with abnormal concentrations of cortisol in animals” (Stegram Pharmaceuticals Limited, priority 2001, dated 2016)

How the values were obtained:
[1] = system: canine PDH; conditions: of 10 dogs studied; cited from earlier work
[2] = system: dogs with hyperadrenocorticism (HAC); assay: Prospective study of trilostane in dogs with spontaneous hyperadrenocorticism (HAC): clinical signs and survival; assay type: in vivo, dog; conditions: given to 4 dogs for three to four days before enrolment
Description: Animals were entered into a prospective study and all animals required clinical and laboratory signs of hyperadrenocorticism as well as a final diagnosis of this disease. Data collected from each case included a clinical-historicy and physical examination, full blood count (CBC), serum biochemical profile, urinalysis and abdominal ultrasound. An ACTH-stimulation test was performed in all dogs. […] Dogs that had been treated for HAC other medication needed to be off these drugs for at least 10 days. Dogs with renal or hepatic insufficiency and dogs that received steroids were not included in the study.
Dogs with pituitary dependant hyperadrenocorticism or adrenal tumour which was unresectable or the owners were unwilling to have surgery performed, respectively, were treated with trilostane. The initial dose for dogs[…] was 30 mg once daily, dogs between 5 and 15 kg received 60 mg once daily and dogs>15 kg received 120 mg once daily. Dosages were adjusted based on clinical signs, blood biochemical parameters and an ACTH stimulation test.
Follow-up re-examinations took place after 10 days, 4 weeks, 3 mouths, 6 months and then every 6 months or within 4 weeks of adjusting the dosage. At these points, owners were carefully questioned about their perception of the dogs general well being, dissolution of clinical signs and potential side effects and a physical examination was performed. A full biochemical profile and an ACTH stimulation test were carried out. Further tests such as urinanalysis, urine culture, thoracic radiographs, etc. were done if deemed necessary. If the clinical sips of hyperadrenocorticism (polyuria/polydipsia, polyphagia, exercise intolerance, etc.) were still present and if the post-ACTH cortisol concentration remained above 220 nmol/l, trilostane was given twice daily at the same dosage.

| Compound | Dogs with improvement of clinical signs [1] [dogs] | Clinical effect [2] |
| --- | --- | --- |
| C#CCN(C)[C@H](C)Cc1ccccc1 [L-Deprenyl] | 2 | – |
| Clc1ccc(C(c2ccccc2Cl)C(Cl)Cl)cc1 (centres unmarked) [Lysodren] | – | did not show any clinical effect |
